Test results as given in patent US9802954B2, “Piperidino-dihydrothienopyrimidine sulfoxides and their use for treating COPD and asthma” (Boehringer Ingelheim International GmbH, priority 2011, dated 2017).
Entries after “also recorded” stand apart in the source; their conditions may differ.

How the values were obtained:
[1] = test system: conscious rats; test: Gastric emptying and gastrointestinal transit in conscious rats (barium sulfate test meal); type: in vivo, rat; conditions: Wistar rats, p.o. 30 min before test meal; for gastric emptying compared to negative control / intestinal transit compared to negative control: all tested doses up to the 30-fold ED50 dose
Experimental: In order to evaluate whether the compounds of the present invention lead to gastrointestinal side effects the compounds of the invention have been administered to rats 30 minutes before the rats were fed with a test meal comprising barium sulfate. After that it was tested whether gastric emptying and/or gastrointestinal transit in these rats was affected by the presence of these compounds.
The effects of the compounds Example 1 and Example 2 on gastric emptying and gastrointestinal transit in conscious rats has been investigated as described below.
Wistar rats of both sexes weighing 130-160 g (ages: male 7 wk, female 8 wk) were used. The animals are obtained from an approved local distributor, a minimum of four days quarantine is required before use, during which time the animals are maintained under routine animal care procedures. Groups of up to 5 animals are housed in cages in a room with controlled temperature and humidity and a light/dark cycle with the lights on from 6 a.m. to 6 p.m. The animals have access to normal rodent chow and water ad libitum. The animals are transported to the laboratory on the day of experimentation.
Gastric emptying as well as small intestinal propulsion are determined using a barium sulfate test meal.
Five rats Crl:WI(Han) of each sex (n=10) were used. The animals were deprived of food 17 h prior to the experiment but allowed free access to water. The drug under investigation (drug was suspended to the concentration of 10 ml/kg body weight in 0.5% Natrosol solution) or the negative control (vehicle alone was given 10 ml/kg body weight) was administered 30 min. (p.o.) before the test meal at doses calculated to be 3-fold, 10-fold or 30-fold the ED50 found in efficacy studies in the rat.
The test meal (suspension of 7.5 g barium sulfate in 10 ml salt-free water) is given orally by gavage at a dose of 2 ml/100 g body weight. Thirty minutes after the administration of the test meal the animals were killed in deep isoflurane anaesthesia by cervical dislocation. The stomach and the intestine were then exposed by laparatomy and removed.
The removed stomach was weighed, then incised, the contents removed and the empty stomach is weighed again.
The length of gut traversed with barium sulfate in relation to the whole length of the gut is determined by direct measurements using a ruler.
The gastric content was calculated from the weight difference between the filled and empty stomach and normalized to 100 g body weight. Thus, an increase in weight difference indicated an impaired gastric emptying, whereas a decrease in weight difference indicated an enhanced gastric emptying.
The length of gut traversed with barium sulphate (as judged by visual inspection) in relation to the whole length of the gut (from the pylorus to the rectum) is determined by direct measurements using a ruler.
Intestinal transit is calculated as the percentage movement of barium sulphate in the intestine in relation to the whole length of the gut. Consequently an increased intestinal transit length indicated an accelerated intestinal transit whereas a decreased intestinal transit length indicated decelerated intestinal transit.
Data are expressed as mean±standard deviation (SD). For each dose, comparisons were performed using an analysis of variance (ANOVA) and a post hoc Dunnett test to compare the various groups to the controls when the ANOVA was significant. p<0.05 was considered significant.

[2] = test system: LPS-induced neutrophil influx into bronchoalveolar lavage fluid of male Wistar rats; test: LPS-induced lung inflammation model: inhibition of LPS-induced neutrophil influx into bronchoalveolar lavage fluid; type: in vivo, rat; conditions: oral by gavage, BALF 4 hours after end of LPS exposure
Experimental: The anti-inflammatory activity of Examples 1 and 2 and of Prior art compounds A and D was assessed in an in vivo LPS-induced lung inflammation model in rats.
As a measure of the pharmacological potency of the above mentioned compounds the half-maximal effective dose (ED50) in regard to the inhibition of lipopolysaccharide-induced (LPS-induced) neutrophil influx into the bronchoalveolar lavage fluid (BALF) was determined by assessing the dose response relationship. Bacterial endotoxins (lipopolysaccharides [LPS]) are components of the outer bacterial cell membrane which play an important role in the pathogenesis of infections with gram-negative bacteria. It is known that inhalation of such aerosolized LPS induces a dose-dependent increase in neutrophils to lung tissues and airspaces in rats which may be detected by analyzing the amount of neutrophils in the bronchoalveolar lavage fluid (BALF). […]
Determination of neutrophil content of the BALF was performed using an ADVIA 120 blood hemacytometer (Bayer Diagnostics). Neutrophil data were normalised (Positive Control (=LPS treatment alone)=100%, Negative Control (no LPS treatment, administration of “vehicle only”)=0%) and expressed as percent of LPS control. The ED50 was calculated using a nonlinear fit (with the Graph Pad Prism software and a sigmoidal dose response fit). […]

intestinal transit compared to negative control [1]	Structure (SMILES)	gastric emptying (weight difference per body weight) compared to negative control ([1]; 3-fold ED50 dose)	gastric emptying (weight difference per body weight) compared to negative control ([1]; 10-fold ED50 dose)	gastric emptying (weight difference per body weight) compared to negative control ([1]; 30-fold ED50 dose)	gastric emptying compared to negative control [1]	ED50 (inhibition of LPS-induced neutrophil influx into BALF) [2]
no significant differences	[O-][S+]1CCc2nc(N3CCC(c4ccc(Cl)cc4)CC3)nc(NC3(CO)CCC3)c21 (single isomer, unassigned) [Example 1]	no relevant differences	no relevant differences	only a very moderate enhancement of the weight difference per body weight	neither showed a substantially enhanced or impaired gastric emptying	–
no relevant differences	[O-][S+]1CCc2nc(N3CCC(c4ncc(Cl)cn4)CC3)nc(NC3(CO)CCC3)c21 (single isomer, unassigned) [Example 2]	–	–	–	neither showed a substantially enhanced or impaired gastric emptying; also recorded: no relevant differences	–
–	[O-][S+]1CCc2nc(N3CCC(c4ccc(Cl)cc4)CC3)nc(NC3(CO)CC3)c21 (stereo not drawn) [Prior art compound A]	–	–	–	–	1.13 mg/kg body weight
–	[O-][S+]1CCc2nc(N3CCC(c4cccc(Cl)c4)CC3)nc(NC3(CO)CC3)c21 (stereo not drawn) [Prior art compound D]	–	–	–	–	6.66 mg/kg body weight
